These results are taken from ChEMBL document CHEMBL4706479, “Novel Aryloxyethyl Derivatives of 1-(1-Benzoylpiperidin-4-yl)methanamine as the Extracellular Regulated Kinases 1/2 (ERK1/2) Phosphorylation-Preferring Serotonin 5-HT Receptor-Biased Agonists with Robust Antidepressant-like Activity” (J Med Chem, 2019).

Series [1] has as its target cGMP-inhibited 3',5'-cyclic phosphodiesterase 3A (Homo sapiens) (UniProt Q14432). The series is described as follows: Inhibition of PDE3A (unknown origin) at 10 uM relative to control.
Series [2] concerns the target Histamine H1 receptor (Homo sapiens) (UniProt P35367). The series is described as follows: Inhibition of histamine H1 receptor (unknown origin) at 10 uM relative to control.
Series [3] concerns the target Beta-1 adrenergic receptor (Homo sapiens) (UniProt P08588). The series is described as follows: Inhibition of adrenergic beta1 receptor (unknown origin) at 10 uM relative to control.
Series [4] addresses hERG (KCNH2) (Homo sapiens, UniProt Q12809). The series is described as follows: Inhibition of human ERG at 10 uM by patch clamp technique relative to control.
Series [5] is described as follows: In vivo biased agonist activity at 5-HT1A receptor in rat prefrontal cortex assessed as serum concentration causing 50% increase in ERK1/2 phosphorylation level after oral administration measured 15 mins post drug administration.
Series [6] relates to Rattus norvegicus. The series is described as follows: Antidepressant-like activity in Wistar rat assessed as minimum effective dose causing reduction in immobility time after oral administration with compound 60 mins prior to testing and measured for 5 mins test period by Porsolt-forced swim test. Format: functional. To be noted: 1.083 h, time 65 min, read-out: MED.
Series [7] in a line: In vivo biased agonist activity at 5-HT1A receptor in rat prefrontal brain cortex assessed as time required to cause maximum increase in ERK1/2 phosphorylation levels at […], po administered as single dose by Alphalisa assay. The class given is functional.
The target in series [8] is T1, Adrenergic receptor alpha-1 (Rattus norvegicus, UniProt P15823+P23944+P43140).
T1 sequence (P15823 whole entry): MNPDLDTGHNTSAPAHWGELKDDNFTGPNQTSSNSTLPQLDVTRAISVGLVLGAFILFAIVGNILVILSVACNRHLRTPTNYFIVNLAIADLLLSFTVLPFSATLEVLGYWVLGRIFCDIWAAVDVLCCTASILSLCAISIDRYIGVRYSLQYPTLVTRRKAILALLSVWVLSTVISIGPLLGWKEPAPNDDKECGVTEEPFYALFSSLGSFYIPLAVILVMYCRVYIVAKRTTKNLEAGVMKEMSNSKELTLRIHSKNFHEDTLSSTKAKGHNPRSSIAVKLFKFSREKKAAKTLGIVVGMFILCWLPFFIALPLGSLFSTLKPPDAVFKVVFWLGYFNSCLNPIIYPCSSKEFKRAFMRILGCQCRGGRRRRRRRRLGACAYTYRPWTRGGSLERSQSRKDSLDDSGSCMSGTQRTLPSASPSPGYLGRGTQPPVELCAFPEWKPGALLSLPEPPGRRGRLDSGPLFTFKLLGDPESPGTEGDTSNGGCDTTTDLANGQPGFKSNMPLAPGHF
T1 sequence (P23944 whole entry): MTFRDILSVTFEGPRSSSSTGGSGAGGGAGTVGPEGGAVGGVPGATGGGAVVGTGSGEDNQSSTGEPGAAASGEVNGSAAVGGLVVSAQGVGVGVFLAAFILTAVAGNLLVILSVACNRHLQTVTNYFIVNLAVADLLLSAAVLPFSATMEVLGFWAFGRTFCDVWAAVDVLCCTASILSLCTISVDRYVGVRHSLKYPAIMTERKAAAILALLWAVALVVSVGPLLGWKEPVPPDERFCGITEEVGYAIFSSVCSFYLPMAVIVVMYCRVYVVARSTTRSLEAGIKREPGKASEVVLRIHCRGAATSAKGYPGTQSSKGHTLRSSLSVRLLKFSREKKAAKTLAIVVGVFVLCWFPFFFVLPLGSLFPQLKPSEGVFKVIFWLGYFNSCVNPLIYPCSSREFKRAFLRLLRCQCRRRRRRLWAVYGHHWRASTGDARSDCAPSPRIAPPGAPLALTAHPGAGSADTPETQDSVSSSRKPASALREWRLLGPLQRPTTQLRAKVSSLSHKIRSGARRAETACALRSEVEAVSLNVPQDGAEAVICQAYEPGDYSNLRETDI
T1 sequence (P43140 whole entry): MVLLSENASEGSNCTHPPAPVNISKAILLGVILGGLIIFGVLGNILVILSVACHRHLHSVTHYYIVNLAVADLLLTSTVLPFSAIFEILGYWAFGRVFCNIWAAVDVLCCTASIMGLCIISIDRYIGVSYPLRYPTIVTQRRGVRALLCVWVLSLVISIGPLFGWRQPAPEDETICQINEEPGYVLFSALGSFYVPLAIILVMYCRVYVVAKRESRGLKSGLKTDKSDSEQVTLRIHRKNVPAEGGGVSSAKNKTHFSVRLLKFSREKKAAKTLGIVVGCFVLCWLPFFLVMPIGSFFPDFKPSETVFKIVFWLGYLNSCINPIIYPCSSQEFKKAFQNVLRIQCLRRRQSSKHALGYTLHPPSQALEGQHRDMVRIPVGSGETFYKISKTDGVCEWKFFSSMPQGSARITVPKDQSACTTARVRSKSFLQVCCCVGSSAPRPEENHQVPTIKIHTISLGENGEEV
Description: Displacement of [3H]-prazosin from alpha1 adrenergic receptor in rat cortex measured after 30 mins by microbeta2 scintillation counting method. Format: tissue-based.

Series [9] addresses Alpha-1A adrenergic receptor (Homo sapiens) (UniProt P35348). The series is described as follows: Inhibition of adrenergic alpha-1A receptor (unknown origin) at 10 uM relative to control.
Series [10] addresses Muscarinic acetylcholine receptor M1 (Homo sapiens) (UniProt P11229). The series is described as follows: Inhibition of muscarinic M1 receptor (unknown origin) at 10 uM relative to control.
The target of series [11] is 5-hydroxytryptamine receptor 1B (Homo sapiens) (UniProt P28222). Description: Inhibition of 5-HT1B (unknown origin) at 10 uM relative to control.
In series [12] the target is 5-hydroxytryptamine receptor 2B (Homo sapiens) (UniProt P41595). Description: Inhibition of 5-HT2B (unknown origin) at 10 uM relative to control.
The nature of series [13]: Aqueous solubility of compound in simulated intestinal fluid at 200 uM. The class given is physicochemical.
Series [14] deals with Rattus norvegicus. Description: Antidepressant-like activity in Wistar rat assessed as reduction in immobility time at […], po administered 15 mins prior to testing and measured for 5 mins test period by Porsolt-forced swim test. Format: functional, organism-based. To be noted: time 20.0 min.
For series [15], the target named is CYP2D6 (Homo sapiens, UniProt P10635). Description: Inhibition of human recombinant CYP2D6 at 10 uM relative to control. The class given is ADME.
For series [16], the target named is D(3) dopamine receptor (Homo sapiens) (UniProt P35462). Description: Inhibition of dopamine D3 receptor (unknown origin) at 1 uM relative to control.
Series [17] addresses Acetylcholinesterase (Homo sapiens) (UniProt P22303). Description: Inhibition of AChE (unknown origin) at 10 uM relative to control.
Series [18] concerns the target Cannabinoid receptor 1 (Homo sapiens) (UniProt P21554). Description: Inhibition of cannabinoid receptor 1 (unknown origin) at 10 uM relative to control.
The target in series [19] is Prostaglandin G/H synthase 1 (Homo sapiens) (UniProt P23219). The series is described as follows: Inhibition of COX1 (unknown origin) at 10 uM relative to control.
The target of series [20] is Adenosine receptor A2a (Homo sapiens) (UniProt P29274). The series is described as follows: Inhibition of adenosine receptor A2A (unknown origin) at 10 uM relative to control.
Series [21] deals with D(2) dopamine receptor (Homo sapiens, UniProt P14416). The series is described as follows: Inhibition of dopamine D2S receptor (unknown origin) at 10 uM relative to control.

SMILES strings stand for the structures. In brackets after ≈: the same amount, converted by molar mass. Activity calls are given as the source filed them. No cut-off for these calls is given here.

Sequence of CYP2D6 (P10635 whole entry): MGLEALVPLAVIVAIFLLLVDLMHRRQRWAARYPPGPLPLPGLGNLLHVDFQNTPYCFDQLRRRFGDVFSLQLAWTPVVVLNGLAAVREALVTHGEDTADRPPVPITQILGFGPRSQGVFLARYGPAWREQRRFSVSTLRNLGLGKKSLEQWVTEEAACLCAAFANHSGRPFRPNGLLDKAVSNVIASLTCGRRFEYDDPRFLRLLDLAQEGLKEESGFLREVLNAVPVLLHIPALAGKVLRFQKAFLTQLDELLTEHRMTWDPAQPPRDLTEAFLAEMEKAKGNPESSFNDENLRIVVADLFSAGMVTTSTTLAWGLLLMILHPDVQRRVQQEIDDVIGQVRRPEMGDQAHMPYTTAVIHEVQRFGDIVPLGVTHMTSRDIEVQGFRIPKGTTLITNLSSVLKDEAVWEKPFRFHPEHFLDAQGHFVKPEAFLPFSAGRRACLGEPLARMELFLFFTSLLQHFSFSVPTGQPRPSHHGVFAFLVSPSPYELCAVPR
Sequence of 5-hydroxytryptamine receptor 2B (Homo sapiens) (P41595 whole entry): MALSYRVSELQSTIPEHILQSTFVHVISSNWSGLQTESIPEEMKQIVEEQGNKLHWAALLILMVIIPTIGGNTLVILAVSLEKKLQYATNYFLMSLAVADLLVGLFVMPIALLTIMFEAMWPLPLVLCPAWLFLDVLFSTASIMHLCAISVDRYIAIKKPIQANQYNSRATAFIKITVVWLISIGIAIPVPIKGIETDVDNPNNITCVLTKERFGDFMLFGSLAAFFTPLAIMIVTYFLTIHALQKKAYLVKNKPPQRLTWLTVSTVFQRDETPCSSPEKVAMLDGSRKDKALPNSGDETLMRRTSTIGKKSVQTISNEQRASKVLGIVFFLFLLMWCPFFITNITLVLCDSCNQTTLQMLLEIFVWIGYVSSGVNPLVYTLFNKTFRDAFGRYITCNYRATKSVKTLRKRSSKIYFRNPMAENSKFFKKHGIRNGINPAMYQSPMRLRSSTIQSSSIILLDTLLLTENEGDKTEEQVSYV
Sequence of D(2) dopamine receptor (P14416 whole entry): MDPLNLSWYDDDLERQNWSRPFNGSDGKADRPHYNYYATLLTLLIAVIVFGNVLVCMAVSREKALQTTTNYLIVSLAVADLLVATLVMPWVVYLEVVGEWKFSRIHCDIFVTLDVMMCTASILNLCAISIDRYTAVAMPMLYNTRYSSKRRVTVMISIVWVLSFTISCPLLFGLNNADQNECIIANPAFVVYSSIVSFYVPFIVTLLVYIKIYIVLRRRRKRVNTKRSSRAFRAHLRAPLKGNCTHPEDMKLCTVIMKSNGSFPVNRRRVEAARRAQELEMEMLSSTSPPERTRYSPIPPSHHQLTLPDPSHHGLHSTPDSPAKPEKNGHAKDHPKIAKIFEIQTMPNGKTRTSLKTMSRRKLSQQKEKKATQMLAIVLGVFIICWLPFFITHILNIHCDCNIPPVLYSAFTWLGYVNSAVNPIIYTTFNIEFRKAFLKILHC
Sequence of Adenosine receptor A2a (Homo sapiens) (P29274 whole entry): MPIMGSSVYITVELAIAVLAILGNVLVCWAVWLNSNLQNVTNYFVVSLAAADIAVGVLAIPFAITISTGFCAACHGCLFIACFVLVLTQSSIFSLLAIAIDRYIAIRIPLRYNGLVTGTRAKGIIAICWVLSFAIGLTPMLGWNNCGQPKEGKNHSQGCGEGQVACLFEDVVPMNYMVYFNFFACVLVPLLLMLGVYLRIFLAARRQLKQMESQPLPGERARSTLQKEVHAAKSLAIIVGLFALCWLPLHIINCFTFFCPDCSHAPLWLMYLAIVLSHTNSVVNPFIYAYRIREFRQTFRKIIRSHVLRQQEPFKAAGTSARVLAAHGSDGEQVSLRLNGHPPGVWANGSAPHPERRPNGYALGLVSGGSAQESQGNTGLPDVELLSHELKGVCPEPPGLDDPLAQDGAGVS
Sequence of hERG (KCNH2) (Q12809 whole entry): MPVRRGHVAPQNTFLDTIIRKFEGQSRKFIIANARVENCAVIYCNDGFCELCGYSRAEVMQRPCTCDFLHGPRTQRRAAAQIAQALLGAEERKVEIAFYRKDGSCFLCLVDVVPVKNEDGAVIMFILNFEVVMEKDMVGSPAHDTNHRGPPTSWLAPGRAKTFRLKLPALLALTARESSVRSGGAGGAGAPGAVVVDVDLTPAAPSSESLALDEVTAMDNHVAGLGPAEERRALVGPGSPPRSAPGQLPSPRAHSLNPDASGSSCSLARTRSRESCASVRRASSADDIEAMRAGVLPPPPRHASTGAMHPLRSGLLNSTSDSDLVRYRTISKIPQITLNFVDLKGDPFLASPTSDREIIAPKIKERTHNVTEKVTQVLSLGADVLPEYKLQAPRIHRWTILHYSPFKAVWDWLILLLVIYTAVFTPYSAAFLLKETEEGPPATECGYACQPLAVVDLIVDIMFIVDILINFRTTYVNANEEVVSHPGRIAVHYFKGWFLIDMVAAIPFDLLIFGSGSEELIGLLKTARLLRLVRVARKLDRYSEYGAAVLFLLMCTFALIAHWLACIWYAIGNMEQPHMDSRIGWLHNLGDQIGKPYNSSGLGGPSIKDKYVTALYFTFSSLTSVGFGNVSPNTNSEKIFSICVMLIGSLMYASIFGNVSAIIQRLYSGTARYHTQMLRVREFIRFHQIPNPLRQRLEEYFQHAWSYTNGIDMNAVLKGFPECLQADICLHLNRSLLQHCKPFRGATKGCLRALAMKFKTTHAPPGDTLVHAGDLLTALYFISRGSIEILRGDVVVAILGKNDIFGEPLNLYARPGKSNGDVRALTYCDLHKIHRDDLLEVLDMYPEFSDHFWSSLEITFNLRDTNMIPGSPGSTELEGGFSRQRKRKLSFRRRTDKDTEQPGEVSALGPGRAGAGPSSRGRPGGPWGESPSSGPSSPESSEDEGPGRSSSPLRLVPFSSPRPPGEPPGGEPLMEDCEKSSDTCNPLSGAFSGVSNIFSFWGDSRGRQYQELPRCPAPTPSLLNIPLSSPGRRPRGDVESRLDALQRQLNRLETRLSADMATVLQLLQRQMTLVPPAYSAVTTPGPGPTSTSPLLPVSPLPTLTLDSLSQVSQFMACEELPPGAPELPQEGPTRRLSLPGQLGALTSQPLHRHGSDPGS
Sequence of Muscarinic acetylcholine receptor M1 (Homo sapiens) (P11229 whole entry): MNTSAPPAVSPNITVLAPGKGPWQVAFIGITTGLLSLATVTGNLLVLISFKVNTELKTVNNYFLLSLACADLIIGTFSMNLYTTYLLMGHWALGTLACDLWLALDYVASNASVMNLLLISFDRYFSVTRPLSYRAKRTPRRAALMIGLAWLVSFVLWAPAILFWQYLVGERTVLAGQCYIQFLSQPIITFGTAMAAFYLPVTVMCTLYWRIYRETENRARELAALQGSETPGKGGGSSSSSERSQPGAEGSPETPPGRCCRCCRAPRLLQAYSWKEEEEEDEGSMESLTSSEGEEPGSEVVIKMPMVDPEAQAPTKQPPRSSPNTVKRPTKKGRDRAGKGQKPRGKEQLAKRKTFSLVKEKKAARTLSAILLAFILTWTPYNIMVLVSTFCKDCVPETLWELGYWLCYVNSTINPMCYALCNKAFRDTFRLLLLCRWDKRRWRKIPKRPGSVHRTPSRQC
Sequence of Beta-1 adrenergic receptor (Homo sapiens) (P08588 whole entry, looked up): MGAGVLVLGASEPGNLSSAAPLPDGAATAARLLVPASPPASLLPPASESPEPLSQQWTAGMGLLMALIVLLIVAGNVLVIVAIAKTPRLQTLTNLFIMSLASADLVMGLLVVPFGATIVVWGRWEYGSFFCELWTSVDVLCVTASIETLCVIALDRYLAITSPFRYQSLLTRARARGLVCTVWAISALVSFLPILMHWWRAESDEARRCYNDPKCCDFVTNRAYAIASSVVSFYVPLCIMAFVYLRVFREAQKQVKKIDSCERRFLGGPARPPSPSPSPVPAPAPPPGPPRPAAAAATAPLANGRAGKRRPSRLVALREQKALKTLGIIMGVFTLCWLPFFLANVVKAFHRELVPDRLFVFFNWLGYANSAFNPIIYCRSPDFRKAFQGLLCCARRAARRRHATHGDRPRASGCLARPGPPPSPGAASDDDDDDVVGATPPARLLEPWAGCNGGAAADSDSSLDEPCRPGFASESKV
Sequence of Acetylcholinesterase (Homo sapiens) (P22303 whole entry): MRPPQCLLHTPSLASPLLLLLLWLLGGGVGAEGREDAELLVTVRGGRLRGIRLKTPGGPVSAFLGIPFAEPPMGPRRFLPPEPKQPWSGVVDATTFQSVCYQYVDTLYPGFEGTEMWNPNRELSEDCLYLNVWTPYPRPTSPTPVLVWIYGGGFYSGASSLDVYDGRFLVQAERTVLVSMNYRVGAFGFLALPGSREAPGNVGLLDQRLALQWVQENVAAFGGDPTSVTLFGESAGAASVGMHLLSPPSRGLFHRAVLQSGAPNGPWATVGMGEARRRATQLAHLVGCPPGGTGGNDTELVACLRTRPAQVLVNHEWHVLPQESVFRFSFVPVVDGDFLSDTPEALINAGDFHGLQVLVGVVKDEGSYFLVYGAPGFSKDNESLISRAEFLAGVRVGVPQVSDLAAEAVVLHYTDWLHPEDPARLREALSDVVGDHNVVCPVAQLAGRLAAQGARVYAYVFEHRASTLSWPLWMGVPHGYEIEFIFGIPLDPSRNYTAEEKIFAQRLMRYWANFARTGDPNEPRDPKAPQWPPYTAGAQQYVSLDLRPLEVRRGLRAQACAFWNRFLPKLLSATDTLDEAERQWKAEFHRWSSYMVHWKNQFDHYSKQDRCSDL
Sequence of Cannabinoid receptor 1 (Homo sapiens) (P21554 whole entry): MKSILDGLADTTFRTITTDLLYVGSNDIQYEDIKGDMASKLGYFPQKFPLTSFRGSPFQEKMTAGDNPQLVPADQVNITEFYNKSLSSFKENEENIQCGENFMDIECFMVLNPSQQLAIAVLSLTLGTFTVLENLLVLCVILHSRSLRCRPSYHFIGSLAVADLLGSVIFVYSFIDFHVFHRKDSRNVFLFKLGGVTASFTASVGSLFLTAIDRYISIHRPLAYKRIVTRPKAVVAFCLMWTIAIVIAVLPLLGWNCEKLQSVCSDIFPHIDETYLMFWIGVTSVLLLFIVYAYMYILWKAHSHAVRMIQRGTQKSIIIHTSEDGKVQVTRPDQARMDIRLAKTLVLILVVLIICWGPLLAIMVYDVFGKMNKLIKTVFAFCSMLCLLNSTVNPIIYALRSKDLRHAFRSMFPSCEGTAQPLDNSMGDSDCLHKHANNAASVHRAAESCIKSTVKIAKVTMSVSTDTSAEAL

With `O=C(c1ccc(F)c(Cl)c1)N1CCC(F)(CNCCOc2ccccn2)CC1`, the inhibition in [1] is -3.9%; in [2] it was -0.5%; in [3], 2.2%; in series [9] it was 99.7%; in series [10] it was 12.9%; in series [11] it was -9.1%. Moreover, the inhibition in series [12] was 39.7%; in series [16], 39.1%; in series [17] it was -2.9%; in series [18], 0.4%; in series [19], 11.9%; in series [20], 11.8%. Also, the inhibition in series [21] amounted to 91.3%. Further, the inhibition at 10 µM was 46.5% in series [4] and 15.9% in series [15]. In [5], the EC worked out at 17.2 ng/mL. For the same compound, in [6], the minimal effective dose was 0.16 mg/kg. Further, in series [7], the Time is on record as 15 min. The compound also returned a negative logarithm of the Ki (pKi) in series [8] of 6.78. For the same compound, the solubility at 200 µM in [13] was 192 µM (≈ 78.8 µg/mL). The result in series [14] was Active.
